Measured values from ChEMBL document CHEMBL5728299, “Compounds and compositions for inhibiting the activity of SHP2” (2021).

Test: After 30-60 minutes incubation at 25° C., the surrogate substrate DiFMUP (Invitrogen, cat #D6567) was added to the reaction and incubated at 25° C. for 30 minutes. The reaction was then quenched by the addition of 5 μl of a 160 μM solution of bpV(Phen) (Enzo Life Sciences cat #ALX-270-204). The fluorescence signal was monitored using a microplate reader (Envision, Perki-Elmer) using excitation and emission wavelengths of 340 nm and 450 nm, respectively. The inhibitor dose response curves were analyzed using normalized IC50 regression curve fitting with control based normalization.

`CC1(CN)CCN(c2nnc(Sc3cccc(NC(=O)c4cnc5ccccn5c4=O)c3Cl)c(N)n2)CC1` gave an IC50 of 173 nM.
